In PubChem BioAssay (NCI):
“And” between values parts separate entries of the source, which are not always exact repeats. Identical values can stand only once.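 Tested at 5 concentrations; 48 h exposure; 96-well plates; endpoints linearly interpolated, else capped at highest concentration. GI50 marks 50% less growth. TGI denotes the concentration required for complete inhibition of growth.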

How the values were obtained:
Test in all cases: DTP human tumour cell line panel, 48 h
LOX IMVI melanoma = test system: LOX IMVI melanoma
MOLT-4 leukemia = test system: MOLT-4 leukemia
MCF7 breast = test system: MCF7 breast
HT29 colon = test system: HT29 colon
RPMI-8226 leukemia = test system: RPMI-8226 leukemia
A549 NSCLC = test system: A549 NSCLC
NCI/ADR-RES ovarian = test system: NCI/ADR-RES ovarian
EKVX NSCLC = test system: EKVX NSCLC
HCC-2998 colon = test system: HCC-2998 colon
HCT-116 colon = test system: HCT-116 colon

Structure (SMILES)	TGI (LOX IMVI melanoma)	TGI (MOLT-4 leukemia)	TGI (MCF7 breast)	TGI (HT29 colon)	TGI (RPMI-8226 leukemia)	TGI (A549 NSCLC)	TGI (NCI/ADR-RES ovarian)	TGI (EKVX NSCLC) [µM]	TGI (HCC-2998 colon)	TGI (HCT-116 colon) [µM]	GI50 (LOX IMVI melanoma)	GI50 (MOLT-4 leukemia)	GI50 (MCF7 breast) [nM]	GI50 (HT29 colon) [nM]	GI50 (RPMI-8226 leukemia) [nM]	GI50 (A549 NSCLC)	GI50 (NCI/ADR-RES ovarian)	GI50 (EKVX NSCLC) [µM]	GI50 (HCC-2998 colon)	GI50 (HCT-116 colon)
O=C(O)CCc1c2ccc(=O)c(O)c-2oc2c(O)c(O)ccc12	47.9 µM	65.7 µM	29.3 µM	> 100 µM	75.3 µM	> 100 µM	> 100 µM	> 100	> 100 µM	59.5	–	–	–	–	–	–	–	–	–	–
O=c1c(Br)cc2c(-c3ccccc3)c3cc(Br)c(O)c(Br)c3oc-2c1Br	> 100 µM	> 100 µM	> 100 µM	39.4 µM	> 100 µM	> 100 µM	> 100 µM	> 100	> 100 µM	> 100	–	–	–	–	–	–	–	–	–	–
O=C1C(=O)c2ccccc2C(O)=C1CCCc1ccc(C2CCCCCC2)cc1	10.5 µM	> 32.1 µM	> 49 µM	27.8 µM	13.9 µM	17.4 µM	11.9 µM	50.6	22.7 µM	13.3	322 nM	618 nM	513	4600	463	0.664 µM	702 nM	0.939	863 nM	426 nM
CC(C)n1nc(-c2ccc3oc(N)nc3c2)c2c(N)ncnc21	1.33 µM and 1.64 µM	5.9 µM and 9.49 µM	2.87 µM and 4.12 µM	10.8 µM and 5.32 µM	1.1 µM and 3.68 µM	2.88 µM and 1.03 µM	0.58 µM and 0.83 µM	0.225	11.5 µM and 11.9 µM	15	12.7 nM and 17.4 nM	32.5 nM and 43.8 nM	< 10	27.2	< 10	0.0156 µM and 0.0191 µM	25.1 nM and 24.5 nM	0.0159	24 nM and 25.9 nM	38.7 nM and 36.1 nM
COc1c(-c2ccc(O)c(O)c2)oc2c(O)c(O)cc(O)c2c1=O	29.4 µM	73.8 µM	76.1 µM	39.8 µM	> 100 µM	> 100 µM	> 100 µM	> 100	> 100 µM	> 100	–	–	–	–	–	–	–	–	–	–
CCOC(=O)c1oc2ccc([N+](=O)[O-])c3c2c1CCC3	> 88.1 µM	> 100 µM	> 100 µM	> 100 µM	> 100 µM	> 100 µM	> 100 µM	> 100	> 100 µM	> 100	–	–	–	–	–	–	–	–	–	–
c1cncc(C2Nc3cccc4cccc(c34)N2)c1	57.6 µM	> 100 µM	60.6 µM	> 100 µM	> 100 µM	> 100 µM	> 100 µM	> 100	> 100 µM	31.6	21700 nM	42500 nM	18700	31800	33900	38.8 µM	33800 nM	36	> 100000 nM	16500 nM
CCc1cc2ncc(CN3CCN(c4ccc(C(=O)NC)nc4)CC3)cc2[nH]c1=O	> 100 µM	> 100 µM	> 100 µM	> 100 µM	> 100 µM	> 100 µM	> 100 µM	> 100	> 100 µM	> 100	60000 nM	46000 nM	29400	48200	40400	> 100 µM	> 100000 nM	84.9	87900 nM	59600 nM
CN1CCN(Cc2ccc(NC(=O)c3cncc(C#Cc4cncc5nccnc45)c3)cc2C(F)(F)F)CC1	5.48 µM	13.2 µM	10.1 µM	7.87 µM	10.6 µM	11.4 µM	25.1 µM	> 50	8.48 µM	7.35	695 nM	1890 nM	2350	914	1860	4.3 µM	6680 nM	> 50	1730 nM	1390 nM
COC(=O)/C=C1/SC(N2N=C(c3cccs3)CC2c2ccc(F)cc2)=NC1=O (centres undefined)	3.06 µM	7.25 µM	8.06 µM	4.54 µM	5.36 µM	20.6 µM	8.61 µM	23.6	3.52 µM	3.82	1610 nM	2650 nM	2340	2280	2080	4.1 µM	2840 nM	3.49	1970 nM	2050 nM
COc1cc(C2C3=C(COC3=O)Nc3c2ccc2c3CCCC2)cc2c1OCO2 (centres undefined)	> 100 µM	> 42.4 µM	8.74 µM	3.97 µM	75.3 µM	> 89.3 µM	19.1 µM	> 100	–	3.29	65.2 nM	130 nM	35.2	35.7	47.9	0.0444 µM	39.1 nM	0.0908	52 nM	39 nM
COc1cc(N2CCN(C(C)C)CC2)ccc1Nc1nc(Nc2cccc(F)c2C(=O)O)c2cc[nH]c2n1	> 25 µM	> 25 µM	> 25 µM	> 25 µM	> 25 µM	> 25 µM	> 25 µM	> 25	> 25 µM	> 25	> 25000 nM	> 25000 nM	> 25000	> 25000	> 25000	> 25 µM	> 25000 nM	> 25	> 25000 nM	> 25000 nM
Cc1cc(C(=O)O)c(C)n1-c1cccc(C(=O)O)c1	> 100 µM	> 100 µM	> 100 µM	> 100 µM	> 100 µM	> 100 µM	> 100 µM	> 100	> 100 µM	> 100	> 100000 nM	> 100000 nM	> 100000	> 100000	> 100000	> 100 µM	> 100000 nM	> 100	> 100000 nM	> 100000 nM
CC(/C=C/c1ccccc1)=N\NC(N)=S	> 100 µM	> 100 µM	> 100 µM	> 100 µM	93.5 µM	> 100 µM	84 µM	> 100	79.1 µM	> 100	–	–	–	–	–	–	–	–	–	–
O=C1Nc2ccccc2/C1=C\c1nc(C2CCN(S(=O)(=O)c3ccc(F)cc3)CC2)n2ccccc12	> 100 µM	> 100 µM	> 100 µM	> 100 µM	> 100 µM	> 100 µM	> 100 µM	> 100	> 100 µM	> 100	2580 nM	> 100000 nM	5720	> 100000	> 100000	> 100 µM	3430 nM	4.87	> 100000 nM	13300 nM
